Key:
Type in all cases: functional
Details in all cases: read-out: IZ
Klebsiella pneumoniae [1] = assay: Antibacterial activity against Klebsiella pneumoniae at 600 ug/ml after overnight incubation
Priestia megaterium [2] = assay: Antibacterial activity against Bacillus megaterium at 600 ug/ml after overnight incubation
Escherichia coli [3] = assay: Antibacterial activity against Escherichia coli at 900 ug/ml after overnight incubation
Bacillus subtilis [4] = assay: Antibacterial activity against Bacillus subtilis at 600 ug/ml after overnight incubation
Klebsiella pneumoniae [5] = assay: Antibacterial activity against Klebsiella pneumoniae at 900 ug/ml after overnight incubation
Streptococcus pyogenes [6] = assay: Antibacterial activity against Streptococcus pyogenes at 600 ug/ml after overnight incubation
Bacillus pumilus [7] = assay: Antibacterial activity against Bacillus pumilus at 900 ug/ml after overnight incubation
Enterococcus faecalis [8] = assay: Antibacterial activity against Enterococcus faecalis at 900 ug/ml after overnight incubation
Staphylococcus aureus [9] = assay: Antibacterial activity against Staphylococcus aureus at 600 ug/ml after overnight incubation
Enterococcus faecalis [10] = assay: Antibacterial activity against Enterococcus faecalis at 600 ug/ml after overnight incubation
Staphylococcus aureus [11] = assay: Antibacterial activity against Staphylococcus aureus at 900 ug/ml after overnight incubation
Bacillus pumilus [12] = assay: Antibacterial activity against Bacillus pumilus at 600 ug/ml after overnight incubation
Klebsiella aerogenes [13] = assay: Antibacterial activity against Enterobacter aerogenes at 600 ug/ml after overnight incubation
Proteus vulgaris [14] = assay: Antibacterial activity against Proteus vulgaris at 600 ug/ml after overnight incubation
Klebsiella aerogenes [15] = assay: Antibacterial activity against Enterobacter aerogenes at 900 ug/ml after overnight incubation
Proteus vulgaris [16] = assay: Antibacterial activity against Proteus vulgaris at 900 ug/ml after overnight incubation
Streptococcus pyogenes [17] = assay: Antibacterial activity against Streptococcus pyogenes at 900 ug/ml after overnight incubation
Bacillus subtilis [18] = assay: Antibacterial activity against Bacillus subtilis at 900 ug/ml after overnight incubation
Escherichia coli [19] = assay: Antibacterial activity against Escherichia coli at 600 ug/ml after overnight incubation
Priestia megaterium [20] = assay: Antibacterial activity against Bacillus megaterium at 900 ug/ml after overnight incubation
Candida albicans [21] = assay: Antifungal activity against Candida albicans at 300 ug/ml after 48 hr
Colletotrichum falcatum [22] = assay: Antifungal activity against Glomerella tucumanensis at 600 ug/ml after 48 hr
Candida albicans [23] = assay: Antifungal activity against Candida albicans at 1200 ug/ml after 48 hr
Candida albicans [24] = assay: Antifungal activity against Candida albicans at 600 ug/ml after 48 hr
Colletotrichum falcatum [25] = assay: Antifungal activity against Glomerella tucumanensis at 900 ug/ml after 48 hr
Exserohilum rostratum [26] = assay: Antifungal activity against Setosphaeria rostrata at 900 ug/ml after 48 hr
Fusarium oxysporum [27] = assay: Antifungal activity against Fusarium oxysporum at 600 ug/ml after 48 hr
Fusarium oxysporum [28] = assay: Antifungal activity against Fusarium oxysporum at 300 ug/ml after 48 hr
Fusarium oxysporum [29] = assay: Antifungal activity against Fusarium oxysporum at 900 ug/ml after 48 hr
Fusarium oxysporum [30] = assay: Antifungal activity against Fusarium oxysporum at 1200 ug/ml after 48 hr
Exserohilum rostratum [31] = assay: Antifungal activity against Setosphaeria rostrata at 300 ug/ml after 48 hr
Colletotrichum falcatum [32] = assay: Antifungal activity against Glomerella tucumanensis at 1200 ug/ml after 48 hr
Exserohilum rostratum [33] = assay: Antifungal activity against Setosphaeria rostrata at 600 ug/ml after 48 hr
Candida albicans [34] = assay: Antifungal activity against Candida albicans at 900 ug/ml after 48 hr
Exserohilum rostratum [35] = assay: Antifungal activity against Setosphaeria rostrata at 1200 ug/ml after 48 hr
Colletotrichum falcatum [36] = assay: Antifungal activity against Glomerella tucumanensis at 300 ug/ml after 48 hr

| Structure (SMILES) | zone of inhibition at 600 µg/mL (Klebsiella pneumoniae [1]) [mm] | zone of inhibition at 600 µg/mL (Priestia megaterium [2]) [mm] | zone of inhibition at 900 µg/mL (Escherichia coli [3]) [mm] | zone of inhibition at 600 µg/mL (Bacillus subtilis [4]) [mm] | zone of inhibition at 900 µg/mL (Klebsiella pneumoniae [5]) [mm] | zone of inhibition at 600 µg/mL (Streptococcus pyogenes [6]) [mm] | zone of inhibition at 900 µg/mL (Bacillus pumilus [7]) [mm] | zone of inhibition at 900 µg/mL (Enterococcus faecalis [8]) [mm] | zone of inhibition at 600 µg/mL (Staphylococcus aureus [9]) [mm] | zone of inhibition at 600 µg/mL (Enterococcus faecalis [10]) [mm] | zone of inhibition at 900 µg/mL (Staphylococcus aureus [11]) [mm] | zone of inhibition at 600 µg/mL (Bacillus pumilus [12]) [mm] | zone of inhibition at 600 µg/mL (Klebsiella aerogenes [13]) [mm] | zone of inhibition at 600 µg/mL (Proteus vulgaris [14]) [mm] | zone of inhibition at 900 µg/mL (Klebsiella aerogenes [15]) [mm] | zone of inhibition at 900 µg/mL (Proteus vulgaris [16]) [mm] | zone of inhibition at 900 µg/mL (Streptococcus pyogenes [17]) [mm] | zone of inhibition at 900 µg/mL (Bacillus subtilis [18]) [mm] | zone of inhibition at 600 µg/mL (Escherichia coli [19]) [mm] | zone of inhibition at 900 µg/mL (Priestia megaterium [20]) [mm] | other results |
| --- | --- | --- | --- | --- | --- | --- | --- | --- | --- | --- | --- | --- | --- | --- | --- | --- | --- | --- | --- | --- | --- |
| CN[C@@H]1[C@H](O[C@H]2[C@H](O[C@H]3[C@H](O)[C@@H](O)[C@H](N=C(N)N)[C@@H](O)[C@@H]3N=C(N)N)O[C@@H](C)[C@]2(O)C=O)O[C@@H](CO)[C@H](O)[C@H]1O [STREPTOMYCIN] | 3.24 | 6.23 | 6.14 | 8.44 | 6.54 | 8.91 | 14.5 | 20.3 | 10.3 | 12.8 | 20 | 7.25 | 4.47 | 8.9 | 8.76 | 16.1 | 16.5 | 16.2 | 3.06 | 12.8 | – |
| CCC(C)n1ncn(-c2ccc(N3CCN(c4ccc(OCC5COC(Cn6cncn6)(c6ccc(Cl)cc6Cl)O5)cc4)CC3)cc2)c1=O (configuration not stated) [ITRACONAZOLE] | – | – | – | – | – | – | – | – | – | – | – | – | – | – | – | – | – | – | – | – | zone of inhibition at 300 µg/mL (Candida albicans [21]): 2.62 mm; zone of inhibition at 600 µg/mL (Colletotrichum falcatum [22]): 9.34 mm; zone of inhibition at 1200 µg/mL (Candida albicans [23]): 25.1 mm; zone of inhibition at 600 µg/mL (Candida albicans [24]): 5.35 mm; zone of inhibition at 900 µg/mL (Colletotrichum falcatum [25]): 18.3 mm; zone of inhibition at 900 µg/mL (Exserohilum rostratum [26]): 14.8 mm; zone of inhibition at 600 µg/mL (Fusarium oxysporum [27]): 10.8 mm; zone of inhibition at 300 µg/mL (Fusarium oxysporum [28]): 4.82 mm; zone of inhibition at 900 µg/mL (Fusarium oxysporum [29]): 20 mm; zone of inhibition at 1200 µg/mL (Fusarium oxysporum [30]): 39.6 mm; zone of inhibition at 300 µg/mL (Exserohilum rostratum [31]): 3.58 mm; zone of inhibition at 1200 µg/mL (Colletotrichum falcatum [32]): 33.4 mm; zone of inhibition at 600 µg/mL (Exserohilum rostratum [33]): 7.56 mm; zone of inhibition at 900 µg/mL (Candida albicans [34]): 12 mm; zone of inhibition at 1200 µg/mL (Exserohilum rostratum [35]): 29.6 mm; zone of inhibition at 300 µg/mL (Colletotrichum falcatum [36]): 4.67 mm |
| Fc1cccc(-c2nnc(CN3CCC(n4nc5ccccc5n4)CC3)o2)c1F | 6.23 | 5.86 | 7.15 | 4.8 | 13.2 | 1.13 | 7.24 | 5.36 | 4.25 | 2.35 | 7.56 | 3.35 | 2.09 | 4.56 | 5.45 | 8.74 | 3.15 | 9.56 | 3.25 | 11.2 | zone of inhibition at 300 µg/mL (Candida albicans [21]): 3.33 mm; zone of inhibition at 600 µg/mL (Colletotrichum falcatum [22]): 9.25 mm; zone of inhibition at 1200 µg/mL (Candida albicans [23]): 17.2 mm; zone of inhibition at 600 µg/mL (Candida albicans [24]): 5.25 mm; zone of inhibition at 900 µg/mL (Colletotrichum falcatum [25]): 17.8 mm; zone of inhibition at 900 µg/mL (Exserohilum rostratum [26]): 15 mm; zone of inhibition at 600 µg/mL (Fusarium oxysporum [27]): 7.01 mm; zone of inhibition at 300 µg/mL (Fusarium oxysporum [28]): 4.21 mm; zone of inhibition at 900 µg/mL (Fusarium oxysporum [29]): 13.2 mm; zone of inhibition at 1200 µg/mL (Fusarium oxysporum [30]): 25.4 mm; zone of inhibition at 300 µg/mL (Exserohilum rostratum [31]): 3.81 mm; zone of inhibition at 1200 µg/mL (Colletotrichum falcatum [32]): 33.9 mm; zone of inhibition at 600 µg/mL (Exserohilum rostratum [33]): 7.86 mm; zone of inhibition at 900 µg/mL (Candida albicans [34]): 9.86 mm; zone of inhibition at 1200 µg/mL (Exserohilum rostratum [35]): 29.8 mm; zone of inhibition at 300 µg/mL (Colletotrichum falcatum [36]): 4.82 mm |

Reference: ChEMBL document CHEMBL3046265, “Synthesis, evaluation of antimicrobial activity, and molecular modeling of novel 2-((4-(2H-benzo[d] [1,2,3] triazol-2-yl)piperidin-1-yl)methyl)-5-substituted phenyl-1,3,4-oxadiazoles” (2013)
